Here are results for two molecules from ChEMBL document CHEMBL5034019, “Discovery of the Next-Generation Pan-TRK Kinase Inhibitors for the Treatment of Cancer” (J Med Chem, 2021).

Each structure is given as a SMILES string. pIC50: −log10 of the molar value. Active and inactive are the calls of the source. No cut-off for these calls is given here. Some results are limits rather than exact numbers.

In data set [1] the target is Serine/threonine-protein kinase A-Raf (Homo sapiens) (UniProt P10398). Description: Inhibition of recombinant human A-Raf (273 to end residues) assessed as residual activity at 0.5 uM using myelin as substrate incubated for 40 mins in presence of [gamma-33P]-ATP by scintillation counting method relative to control.
Sequence of Serine/threonine-protein kinase A-Raf (Homo sapiens) (P10398 whole entry): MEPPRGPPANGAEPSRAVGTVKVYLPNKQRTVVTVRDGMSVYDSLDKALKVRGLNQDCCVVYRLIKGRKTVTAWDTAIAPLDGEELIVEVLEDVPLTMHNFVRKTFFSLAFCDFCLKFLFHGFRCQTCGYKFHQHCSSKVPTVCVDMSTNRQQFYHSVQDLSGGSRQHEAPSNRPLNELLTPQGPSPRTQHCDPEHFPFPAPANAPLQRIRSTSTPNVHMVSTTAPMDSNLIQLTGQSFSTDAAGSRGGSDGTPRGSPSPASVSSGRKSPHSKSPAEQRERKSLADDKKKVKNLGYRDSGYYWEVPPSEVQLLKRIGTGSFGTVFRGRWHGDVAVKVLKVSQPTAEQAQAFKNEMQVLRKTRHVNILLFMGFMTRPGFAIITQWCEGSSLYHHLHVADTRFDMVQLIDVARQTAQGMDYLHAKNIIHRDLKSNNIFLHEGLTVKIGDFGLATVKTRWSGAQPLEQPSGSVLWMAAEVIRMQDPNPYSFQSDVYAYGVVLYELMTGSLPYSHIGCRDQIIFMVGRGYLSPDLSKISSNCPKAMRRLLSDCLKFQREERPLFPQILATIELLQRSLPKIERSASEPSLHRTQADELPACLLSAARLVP
The test system of data set [2] is Hepatocyte growth factor receptor (Homo sapiens), P08581 [D1246H]. Description: Inhibition of recombinant human Met D1246H mutant (974 to end residues) assessed as residual activity at 0.5 uM using KKKGQEEEYVFIE as substrate incubated for 40 mins in presence of [gamma-33P]-ATP by scintillation counting method relative to control.
The target in data set [3] is Hepatocyte growth factor receptor (Homo sapiens) (UniProt P08581). Nature of the data set: Inhibition of recombinant human MET (974 to end residues) assessed as residual activity at 0.5 uM using KKKGQEEEYVFIE as substrate incubated for 40 mins in presence of [gamma-33ATP by scintillation counting based radiometry assay relative to control.
Data set [4] can be described thus: Toxicity in […] xenografted with mouse BaF3 cells transfected with ETV6-NTRK3 assessed as weight loss at 20 mg/kg, po administered once daily for 21 days and measured twice weekly. Format: organism-based. As to conditions: in vivo, 504 h, time 21 day.
The target in data set [5] is T1, NT-3 growth factor receptor (Homo sapiens, UniProt Q16288). Nature of the data set: Inhibition of human TrkC (510 to end residues) assessed as residual activity at 0.5 uM using GEEPLYWSFPAKKK as substrate measured after 40 mins in presence of [gamma33P]ATP by scintillation counting method relative to control.
The target of data set [6] is High affinity nerve growth factor receptor (Homo sapiens, UniProt P04629).
Sequence of High affinity nerve growth factor receptor (Homo sapiens, UniProt P04629) (P04629 whole entry): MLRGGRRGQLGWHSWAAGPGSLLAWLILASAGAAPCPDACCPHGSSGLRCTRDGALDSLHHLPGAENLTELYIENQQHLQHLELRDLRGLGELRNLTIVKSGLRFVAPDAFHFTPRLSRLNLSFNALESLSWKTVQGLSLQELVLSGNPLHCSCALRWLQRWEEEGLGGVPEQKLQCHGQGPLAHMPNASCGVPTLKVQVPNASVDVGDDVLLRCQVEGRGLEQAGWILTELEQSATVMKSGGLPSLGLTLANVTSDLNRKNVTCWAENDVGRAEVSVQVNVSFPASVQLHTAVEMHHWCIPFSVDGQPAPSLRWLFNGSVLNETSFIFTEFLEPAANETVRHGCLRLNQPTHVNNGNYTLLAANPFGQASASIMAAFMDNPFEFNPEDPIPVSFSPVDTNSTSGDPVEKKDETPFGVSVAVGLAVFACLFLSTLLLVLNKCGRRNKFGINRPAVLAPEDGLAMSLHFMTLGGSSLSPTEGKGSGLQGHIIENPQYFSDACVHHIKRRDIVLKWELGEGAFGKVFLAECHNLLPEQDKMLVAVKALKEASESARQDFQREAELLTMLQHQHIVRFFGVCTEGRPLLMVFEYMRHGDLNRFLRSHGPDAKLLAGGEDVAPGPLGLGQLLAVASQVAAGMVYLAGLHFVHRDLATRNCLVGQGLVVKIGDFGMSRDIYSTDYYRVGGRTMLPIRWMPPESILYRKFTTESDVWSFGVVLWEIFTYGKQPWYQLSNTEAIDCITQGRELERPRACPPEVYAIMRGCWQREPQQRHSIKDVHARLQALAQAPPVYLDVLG
Description: Inhibition of TrKA (unknown origin) incubated for 120 mins in presence of 33P-ATP
Data set [7] is described as follows: AUC (0 to t) in male Sprague-Dawley rat at 2 mg/kg, iv measured up to 24 hrs by LC-MS/MS analysis. The data set is classed as ADME, organism-based. Also noted: route intravenous, dose 2 mg/kg, time <=24. As to conditions: in vivo.
Data set [8] addresses Mast/stem cell growth factor receptor Kit (Homo sapiens) (UniProt P10721). Description: Inhibition of recombinant human c-Kit (544 to end residues) assessed as residual activity at 0.5 uM using poly(Glu, Tyr) 4:1 as substrate measured after 40 mins in presence of [gamma33P]ATP by scintillation counting method.
The target in data set [9] is ALK tyrosine kinase receptor (Homo sapiens, UniProt Q9UM73). Nature of the data set: Inhibition of human ALK (1058 to end residues) assessed as residual activity at 0.5 uM using KKKSPGEYVNIEFG as substrate incubated for 40 mins in presence of [gamma-33ATP] by scintillation counting based radiometry assay relative to control.
Sequence of ALK tyrosine kinase receptor (Q9UM73 19-1620 limits assumed): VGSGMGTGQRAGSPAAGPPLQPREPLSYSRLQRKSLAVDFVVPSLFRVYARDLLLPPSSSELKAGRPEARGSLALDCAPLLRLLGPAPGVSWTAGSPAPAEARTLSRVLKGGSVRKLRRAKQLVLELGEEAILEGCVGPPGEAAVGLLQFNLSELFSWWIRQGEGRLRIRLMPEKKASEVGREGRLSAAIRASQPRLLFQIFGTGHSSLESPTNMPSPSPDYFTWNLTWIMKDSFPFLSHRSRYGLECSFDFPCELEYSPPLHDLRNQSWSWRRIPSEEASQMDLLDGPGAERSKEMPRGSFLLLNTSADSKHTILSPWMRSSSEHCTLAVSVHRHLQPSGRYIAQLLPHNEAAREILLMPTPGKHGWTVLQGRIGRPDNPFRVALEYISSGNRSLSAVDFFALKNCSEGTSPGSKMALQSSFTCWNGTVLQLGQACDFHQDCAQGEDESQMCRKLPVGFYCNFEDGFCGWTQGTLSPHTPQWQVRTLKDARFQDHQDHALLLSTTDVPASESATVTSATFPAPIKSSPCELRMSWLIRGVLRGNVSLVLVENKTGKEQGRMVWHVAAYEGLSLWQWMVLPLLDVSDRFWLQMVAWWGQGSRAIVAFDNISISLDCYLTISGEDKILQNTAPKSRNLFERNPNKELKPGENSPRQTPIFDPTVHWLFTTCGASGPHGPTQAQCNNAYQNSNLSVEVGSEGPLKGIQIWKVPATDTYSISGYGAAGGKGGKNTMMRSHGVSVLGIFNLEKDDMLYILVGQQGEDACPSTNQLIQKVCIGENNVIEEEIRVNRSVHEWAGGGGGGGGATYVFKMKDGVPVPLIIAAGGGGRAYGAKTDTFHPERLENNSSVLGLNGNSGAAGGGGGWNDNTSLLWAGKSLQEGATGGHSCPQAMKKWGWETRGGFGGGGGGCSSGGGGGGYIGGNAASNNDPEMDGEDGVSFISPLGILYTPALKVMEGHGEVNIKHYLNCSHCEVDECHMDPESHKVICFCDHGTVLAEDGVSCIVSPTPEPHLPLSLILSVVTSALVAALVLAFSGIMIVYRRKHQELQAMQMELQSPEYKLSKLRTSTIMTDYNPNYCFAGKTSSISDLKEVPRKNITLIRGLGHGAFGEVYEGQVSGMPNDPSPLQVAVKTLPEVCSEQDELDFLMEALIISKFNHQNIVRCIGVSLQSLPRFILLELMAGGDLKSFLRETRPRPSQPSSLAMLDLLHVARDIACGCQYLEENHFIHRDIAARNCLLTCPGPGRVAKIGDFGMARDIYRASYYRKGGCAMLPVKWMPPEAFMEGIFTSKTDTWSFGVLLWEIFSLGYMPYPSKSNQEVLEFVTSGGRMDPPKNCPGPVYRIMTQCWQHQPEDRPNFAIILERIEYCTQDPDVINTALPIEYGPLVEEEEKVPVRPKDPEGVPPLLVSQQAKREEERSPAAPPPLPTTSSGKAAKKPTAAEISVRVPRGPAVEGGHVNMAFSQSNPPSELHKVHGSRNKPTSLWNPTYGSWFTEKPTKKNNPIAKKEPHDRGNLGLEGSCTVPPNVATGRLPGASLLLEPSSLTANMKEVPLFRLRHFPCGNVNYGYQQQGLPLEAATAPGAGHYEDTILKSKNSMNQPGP
For data set [10], the target named is High affinity nerve growth factor receptor (Homo sapiens, UniProt P04629, G595R).
A short description of data set [11]: AUC (0 to t) in male Sprague-Dawley rat at 10 mg/kg, po measured up to 24 hrs by LC-MS/MS analysis. Format: ADME, organism-based. The arrangement: route oral, dose 10 mg/kg, time <=24. As to conditions: in vivo.
Data set [12] deals with Hepatocyte growth factor receptor (Homo sapiens), P08581 [Y1248H]. Description: Inhibition of recombinant human Met Y1248H mutant (974 to end residues) assessed as residual activity at 0.5 uM using KKKGQEEEYVFIE as substrate incubated for 40 mins in presence of [gamma-33P]-ATP by scintillation counting method relative to control.
In data set [13] the target is Voltage-gated inwardly rectifying potassium channel KCNH2 (Homo sapiens, UniProt Q12809). Nature of the data set: Inhibition of human ERG.
Data set [14] can be described thus: Tmax in male Sprague-Dawley rat at 10 mg/kg, po measured up to 24 hrs by LC-MS analysis. Format: ADME, organism-based. To be noted: in vivo.
Data set [15] deals with Mast/stem cell growth factor receptor Kit (Homo sapiens), P10721 [V560G]. Description: Inhibition of recombinant human C-Kit V560G mutant (544 to end residues) assessed as residual activity at 0.5 uM poly(Glu, Tyr) 4:1 as substrate incubated 40 mins in presence of [gamma-33ATP] by scintillation counting based radiometry assay relative to control.
Sequence of Mast/stem cell growth factor receptor Kit (Homo sapiens), P10721 [V560G] (P10721 whole entry V560G): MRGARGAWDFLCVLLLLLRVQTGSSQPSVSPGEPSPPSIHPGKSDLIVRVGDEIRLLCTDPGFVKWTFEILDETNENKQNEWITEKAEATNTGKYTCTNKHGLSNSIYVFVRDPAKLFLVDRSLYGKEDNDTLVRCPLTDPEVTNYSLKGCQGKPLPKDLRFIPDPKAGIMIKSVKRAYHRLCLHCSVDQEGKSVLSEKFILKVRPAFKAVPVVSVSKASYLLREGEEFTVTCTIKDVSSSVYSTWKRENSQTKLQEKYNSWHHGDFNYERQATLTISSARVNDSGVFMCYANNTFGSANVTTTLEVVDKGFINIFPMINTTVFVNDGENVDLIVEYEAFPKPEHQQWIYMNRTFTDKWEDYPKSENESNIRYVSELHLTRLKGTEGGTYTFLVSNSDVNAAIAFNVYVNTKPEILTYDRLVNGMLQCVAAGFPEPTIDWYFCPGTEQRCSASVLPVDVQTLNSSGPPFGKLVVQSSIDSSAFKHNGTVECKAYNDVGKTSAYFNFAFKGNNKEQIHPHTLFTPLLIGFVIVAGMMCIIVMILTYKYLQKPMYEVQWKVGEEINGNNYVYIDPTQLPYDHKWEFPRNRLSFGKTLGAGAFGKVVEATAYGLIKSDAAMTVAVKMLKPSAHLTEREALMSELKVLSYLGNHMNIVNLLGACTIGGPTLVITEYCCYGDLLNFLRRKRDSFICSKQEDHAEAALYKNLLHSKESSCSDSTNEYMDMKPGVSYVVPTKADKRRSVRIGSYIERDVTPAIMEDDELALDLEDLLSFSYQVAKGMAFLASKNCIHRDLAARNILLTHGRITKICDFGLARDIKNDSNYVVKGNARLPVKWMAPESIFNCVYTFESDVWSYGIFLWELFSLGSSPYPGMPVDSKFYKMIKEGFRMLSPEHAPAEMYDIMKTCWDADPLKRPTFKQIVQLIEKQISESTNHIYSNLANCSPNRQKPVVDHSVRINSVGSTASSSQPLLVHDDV
Data set [16] addresses T1, NT-3 growth factor receptor.
Target sequence in this assay (Q16288 whole entry): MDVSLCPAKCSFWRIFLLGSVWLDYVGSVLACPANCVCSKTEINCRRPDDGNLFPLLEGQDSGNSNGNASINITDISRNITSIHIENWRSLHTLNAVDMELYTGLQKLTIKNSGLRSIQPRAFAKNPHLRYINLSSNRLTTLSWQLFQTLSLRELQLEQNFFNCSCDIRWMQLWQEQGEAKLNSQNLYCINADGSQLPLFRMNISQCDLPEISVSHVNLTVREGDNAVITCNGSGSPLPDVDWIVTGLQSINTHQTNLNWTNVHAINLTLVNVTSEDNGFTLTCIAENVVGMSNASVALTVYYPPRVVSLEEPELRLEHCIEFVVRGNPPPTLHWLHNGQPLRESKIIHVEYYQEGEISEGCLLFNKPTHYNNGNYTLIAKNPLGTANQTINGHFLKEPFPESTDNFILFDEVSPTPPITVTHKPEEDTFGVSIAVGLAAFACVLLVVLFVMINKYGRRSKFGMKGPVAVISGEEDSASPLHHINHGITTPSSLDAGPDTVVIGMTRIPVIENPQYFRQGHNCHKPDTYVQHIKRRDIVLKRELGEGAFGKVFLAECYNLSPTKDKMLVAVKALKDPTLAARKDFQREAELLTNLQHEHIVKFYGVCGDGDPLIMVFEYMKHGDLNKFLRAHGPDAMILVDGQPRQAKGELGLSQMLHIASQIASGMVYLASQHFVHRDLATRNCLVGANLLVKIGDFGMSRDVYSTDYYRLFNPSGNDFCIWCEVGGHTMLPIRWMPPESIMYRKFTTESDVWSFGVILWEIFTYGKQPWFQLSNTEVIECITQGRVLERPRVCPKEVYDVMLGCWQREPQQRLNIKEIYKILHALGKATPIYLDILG
Description: Inhibition of TrKC (unknown origin) incubated for 120 mins in presence of 33P-ATP
The nature of data set [17]: Clearance in female Sprague-Dawley rat at 2 mg/kg, iv measured up to 24 hrs by LC/MS/MS analysis. To be noted: in vivo. The data set is classed as ADME, organism-based.
Data set [18] concerns Proto-oncogene tyrosine-protein kinase Src (Homo sapiens), P12931 [T341M]. Nature of the data set: Inhibition of recombinant full-length human Src T341M mutant assessed as residual activity at 0.5 uM using GGEEEEYFELVKKKK as substrate measured after 40 mins in presence of [gamma33P]ATP by scintillation counting method relative to control.
Data set [19] has as its system Platelet-derived growth factor receptor alpha (Homo sapiens), P16234 [V561D]. Nature of the data set: Inhibition of human PDGFRalpha V561D mutant (550 to end residues) assessed as residual activity at 0.5 uM using poly(Glu, Tyr) 4:1 as substrate measured after 40 mins in presence of [gamma33P]ATP by scintillation counting based radiometry assay relative to control.

Data set [20] relates to BaF3. Description: Antitumor activity against mouse BaF3 cells transfected with LMNA-NTRK1-G595R mutant xenografted in mouse assessed as tumor growth inhibition at 5 to 20 mg/kg, po administered once daily for 21 days and measured twice weekly. As to conditions: dose 5-20 mg/kg, time 21.0 day.
Data set [21] can be described thus: Toxicity in mouse xenografted with mouse BaF3 cells transfected with LMNA-NTRK1 assessed as death at 100 mg/kg, po administered once daily for 21 days and measured twice weekly. To be noted: in vivo, 504 h.
The nature of data set [22]: Toxicity in mouse xenografted with mouse BaF3 cells transfected with ETV6-NTRK3-G623R mutant assessed as unkempt appearance at 100 mg/kg, po administered once daily for 21 days and measured twice weekly. To be noted: in vivo, 504 h.
A further data set deals with KM12. Nature of the data set: Antiproliferative activity against TrK fused human KM12 cells. Format: functional, cell-based.
Data set [23] can be described thus: AUC (0 to t) in Sprague-Dawley rat at 3 mg/kg measured up to 24 hrs by LC-MS/MS analysis. The data set is classed as ADME, organism-based. The arrangement: dose 3 mg/kg, time <=24. As to conditions: in vivo.
A short description of data set [24]: C0 in Sprague-Dawley rat at 3 mg/kg measured up to 24 hrs by LC/MS/MS analysis. The data set is classed as ADME, organism-based. As to conditions: in vivo.
Data set [25] is described as follows: Half life in Sprague-Dawley rat at 3 mg/kg measured up to 24 hrs by LC-MS/MS analysis. The data set is classed as ADME, organism-based. As to conditions: in vivo.
A short description of a further data set: cells. To be noted: Homo sapiens, CUTO-3.
Data set [26] in a line: Clearance in Sprague-Dawley rat at 3 mg/kg measured up to 24 hrs by LC/MS/MS analysis. The data set is classed as ADME, organism-based. To be noted: in vivo.
Data set [27] concerns BaF3. Description: Antitumor activity against mouse BaF3 cells transfected with LMNA-NTRK1-G595R mutant xenografted in mouse assessed as tumor growth inhibition at 100 mg/kg, po administered once daily for 21 days and measured twice weekly. To be noted: time 21.0 day.

Sequence of Mast/stem cell growth factor receptor Kit (Homo sapiens) (P10721 whole entry): as the sequence (P10721 whole entry V560G) above, with G560V counted along it

As usually defined, the pIC50 is the negative decadic logarithm of the IC50, by convention in mol/L. What is called AUC(0-t) is the area under the concentration-time curve up to a stated or last time point. Read a low AUC(0-t) as less exposure. As a reminder, the Tmax is the time from dosing to the highest level. Usually clearance stands for the volume of plasma or blood freed of the substance per unit of time. Take `O=C1NC2(CC2)COc2ncc(F)cc2[C@H]2COCCN2c2ccn3ncc1c3n2`: the Activity was 103% in [1]; 91% in data set [2]; 98% in data set [3]; “Toxic” in data set [4]; -3% in [5]; 100% in data set [8]. For the same molecule, the Activity in data set [9] stood at 26%; in [12], 89%; in [15] it was 109%; in data set [18] it was 55%; in [19] it was 103%. Also, the pIC50 in data set [6] was 8.62; in data set [10] it was 8.46; in data set [13], 4.89; in data set [16], 9.70. For the same molecule, the values for the area under the curve AUC(0-t) at 24 h in data set [7] and in [11] were 4.19 µM·h and 11.7 µM·h, respectively. The Tmax in data set [14] was 40 min. Also, the clearance in data set [17] was 8.19 mL/min/kg. In addition, the result in the data set with BaF3 [20] was Active.

One may read the half-life as how long it takes for the measured level to halve. Low values mean rapid decline, high ones slow decline. Regarding `C[C@@H]1CCc2ncc(F)cc2[C@H]2CCCN2c2ccn3ncc(c3n2)C(=O)N1` [SELITRECTINIB], the Activity result in data set [21] and in data set [22] was “Toxic” each time. The negative-log IC50 (pIC50) in the data set on KM12 and in the data set “cells” was at least 8.30 throughout. The molecule also returned an AUC(0-t) at 24 h in [23] of 11.1 µM·h. Besides, in [24], the C0 is 23.779 µM. For the same molecule, the half-life in [25] was 72 min. The clearance in [26] came to 11.8 mL/min/kg. For the same molecule, the result with BaF3 [27] was Active.
